Source: patent EP0777471B1, “INHIBITION OF LEUKOTRIENE BIOSYNTHESIS WITH UREA DERIVATIVES” (MINNESOTA MINING AND MANUFACTURING COMPANY, priority 1994, dated 1996)
“And” between values parts separate entries of the source, which are not always exact repeats. Equal entries are not always repeated. Where two headings read alike, the source gives them in different places.

Assays:
[1] = test system: production of Leukotriene B4; assay: Rat ex vivo Leukotriene B4 inhibition (oral dosing, blood challenged with A23187); format: in vivo, Rats; conditions: two hours post dose
Protocol: The test method described below measures the ability of a compound when administered orally to rats to inhibit the production of Leukotriene B4 in their blood which is drawn and challenged.
Rats (CD, male, non-fasted, 250 g) are lightly anesthetized with carbon dioxide and an approximately 0.75 mL sample of whole blood is obtained via cardiac puncture. The sample is dispensed into 12 X 75 mm polypropylene tubes containing 8-10 µL of 10,000 units/mL heparin, mixed and then maintained on ice. The rats are allowed to recover approximately one hour then dosed orally with compound dissolved in PEG 400 at a 5 mL/Kg volume. Five (5) rats are utilized per group. Two (2) hours post dose the rats are again anesthetized with carbon dioxide and the blood sampled again via cardiac puncture.
Duplicate 200 µL portions of blood are added to 1.0 mL polypropylene tubes. A 10 µL portion of 1mM A23187 Calcium Ionophore in dimethyl sulfoxide/Tris buffer is added to each tube. The tubes are gently vortexed then incubated in a 37°C water bath for 30 minutes. The tubes are then centrifuged at 4000 rpm for 10 minutes. 50 µL portions of plasma are transferred to 1.0 mL tubes containing 200 µL of methanol. The tubes are vortexed then placed in the freezer overnight.
The tubes are removed from the freezer then centrifuged at 4000 rpm for 10 minutes. […] portions of the methanol/plasma supernatant and 10 µL methanol dilutions of LTB4 standard curve are transferred to 96 well v-bottom microtiter plates. The plates are vacuum dried at 40°C. A 40 µL portion of LTB4 radioimmunoassay buffer is added to each well. The plate is bath sonicated for 5 minutes then assayed according to the manufacturer's (Advanced Magnetics; Cambridge, MA) instructions. Percent inhibition values are obtained by comparing the level of LTB4 in the post-dose samples to the level in the pre-dose samples according to the equation below. % Inhibition =((LTB4 pre-dose) - (LTB4 post-dose))/((LTB4 pre-dose))X 100 [formula]

[2] = test system: production of Leukotriene C4 in mouse peritoneal macrophages; assay: In vitro mouse peritoneal macrophage Leukotriene C4 inhibition (zymosan-stimulated, LTC4 radioimmunoassay); format: cell-based; conditions: Zymosan 50 µg/mL
Protocol: The test method described below measures the ability of compounds to inhibit the production of Leukotriene C4 in mouse peritoneal macrophages.
Mice (female, CD-1, weighing 25 g) are euthanized by exposure to carbon dioxide. The peritoneal cavity is exposed by peeling back the abdominal skin. A 5 mL portion of media (M199 containing 1% fetal bovine serum, 100 units/mL of penicillin, 100 µg/mL of streptomycin, 20 units/mL of heparin and no glutamine) is injected into the exposed peritoneal cavity of each mouse. The lavage fluid is removed and pooled to yield approximately1 X 10^6 macrophages/mL. A 2 mL portion of lavage fluid is added to each well of a 24 well sterile multidish and the macrophages are allowed to adhere to the plate for 2 hours at 37°C in a 5% carbon dioxide atmosphere. The media is removed and each well is washed with 2 mL of phosphate buffered saline (PBS). A 1 mL portion of media, without heparin, but containing 5 µCi/mL of 3H-myoinositol is added to each well and the plates are incubated overnight at 37°C in a 5% carbon dioxide atmosphere. The media is removed and the cells are washed twice with 2 mL portions of PBS. A 1 mL portion of Puck's saline formulation A containing 1 mM calcium chloride, 1 mM magnesium chloride and 10 mM lithium chloride is added to each well. (The Puck's formulation is made first as a 10X solution which contains 4 g of potassium chloride, 80 g of sodium chloride and 10 g of glucose per liter. The Puck's saline formulation A is made using 10 mL of the 10X Puck's formulation, 0.47 mL of 7.5% sodium bicarbonate and 2 mL of 1M N-2-hydroxyethylpiperazine-N'-2-ethanesulfonic acid per 100 mL.)
Compounds are dissolved in dimethyl sulfoxide. Compounds are tested at concentrations of 10, 1 and 0.1 µM. Each concentration is tested in duplicate.
A 1 µL portion of compound solution or vehicle (DMSO) is added to each well and the plates are incubated for 15 minutes at 37°C in a 5% carbon dioxide atmosphere. Zymosan is then added to provide a final concentration of 50 µg/mL in each well and the plate is incubated for 1 to 2 hours at 37°C in a 5% carbon dioxide atmosphere.
Following incubation 200 µL portions of media are transferred to 12 X 75 mm tubes. The tubes are either assayed immediately or stored at -20°C until they can be assayed.
The media is assayed for the presence of Leukotriene C4 by radioimmunoassay which is performed according to the manufacturer's (Advanced Magnetics; Cambridge, MA) instructions.

[3] = test system: production of Leukotriene B4 (LTB4); assay: Dog ex vivo Leukotriene B4 inhibition (oral dosing, blood challenged with calcium ionophore); format: in vivo, beagle dogs; conditions: each entry one dog, negative = stimulation of LTB4 production; for % Inhibition 2 hour / % Inhibition 4 hour / % Inhibition 6 hour / % Inhibition 1 hour: 5 mg/Kg; for % Inhibition 4 hour: 4 hour post dose; for % Inhibition 6 hour: 6 hour post dose; for inhibition at 5 mg/kg: Canis lupus familiaris, po
Protocol: The test method described below measures the ability of a compound when administered orally to dogs to inhibit the production of Leukotriene B4 (LTB4) in their blood which is drawn and challenged at selected time points.
The test is conducted in beagle dogs (male and female; about 10 Kg). Prior to starting, the neck area of the beagle is shaved to allow easy access to the jugular vein. A 3-4 mL sample of blood is drawn from the jugular vein into a heparinized vacutainer. The dog is then dosed using a tube long enough to reach its stomach. The compound is dissolved in PEG 400 at a concentration such that the appropriate dose can be administered in approximately 5 mL. Immediately after the compound is given, a flush using 5 mL of vehicle is given to rinse the dosing tube. At selected time points following the dose, a 3-4 mL sample of blood is drawn.
The blood samples that have been drawn are challenged as soon as possible. A 0.5 mL portion of blood is aliquoted into 3 tubes (1 mL microtiter tubes). A 1 µL portion of 25 mM calcium ionophore in dimethyl sulfoxide is added to 2 of the tubes. A 1 µL portion of dimethyl sulfoxide is added to the third tube. The tubes are lightly mixed then placed in a 37°C water bath for 30 minutes. The tubes are centrifuged at 11,000 rpm for 3 minutes and the plasma supernatant is transferred to clean tubes. A 50 µL portion of this plasma is added to a I mL microtiter tube containing 200 µL of methanol. The tubes are placed in the freezer at -20°C for at least 1 hour then centrifuged at 2000 rpm for 10 minutes. A 10 µL portion of the methanol supematant is dried under vacuum at ambient temperature and then reconstituted in LTB4 buffer. The amount of LTB4 in the sample is determined by radioimmunoassay performed according to the manufacturer's (Advanced Magnetics; Cambridge, MA) instructions. Percent inhibition values are obtained by comparing the level of LTB4 in the post-dose sample to the level in the pre-dose sample according to the equation below. % Inhibition =((LTB4 predose) - (LTB4 postdose))/((LTB4 predose))X 100 [formula]
A number of the compounds that are useful in the practice of the method of the invention were tested. The results are shown in Table 15 below where each entry represents the results from one dog. A negative number indicates stimulation of LTB4 production. All compounds were tested at a dose of 5 mg/Kg.

[4] = 1 h, 1 hour post dose, read-out: % Inhibition 1 hour
[5] = 2 h, 2 hour post dose, read-out: % Inhibition 2 hour

COc1ccc(OC)c(NC(=O)N(O)C(C)C)c1 [Compound 28, 3-(2,5-dimethoxyphenyl)-1-hydroxy-1-(1-methylethyl)urea]
%I ([1]; 50 mg/Kg): 29%

CCC(CC)N(O)C(=O)Nc1ccc(C(=O)c2ccccc2)cc1 [Compound 79, 1-Hydroxy-1-(1-ethylpropyl)-3-(4-benzoylphenyl)urea]
IC50 [2]: < 1 µM

CC(C)N(O)C(=O)Nc1cccc([S+](C)[O-])c1 (centres unmarked) [Compound 61, 1-Hydroxy-1-(1-methylethyl)-3-[3-(methylsulfinyl)phenyl]urea]
% Inhibition 2 hour ([3]; 2 hour post dose): 99%
% Inhibition 4 hour [3]: 29% and -2%
% Inhibition 6 hour [3]: -32% and 22%
inhibition at 5 mg/kg [3, 4]: 100%
inhibition at 5 mg/kg [3, 5]: 100%

CCC(CC)N(O)C(=O)Nc1ccc(OCC2CCCCC2)cc1 [Compound 81, 1-Hydroxy-1-(1-ethylpropyl)-3-[4-(cyclohexylmethoxy)phenyl]urea]
IC50 [2]: < 1 µM

CCC(CC)N(O)C(=O)Nc1ccc(Oc2ccccc2)cc1 [Compound 72, 1-Hydroxy-1-(1-ethylpropyl)-3-(4-phenoxyphenyl)urea]
IC50 [2]: < 1 µM

CCOCCN(O)C(=O)Nc1ccccc1 [Compound 45, 1-(2-ethoxyethyl)-1-hydroxy-3-phenylurea]
%I ([1]; 50 mg/Kg): 6%

CC(C)N(O)C(=O)Nc1cccc(S(C)(=O)=O)c1 [Compound 60, 1-Hydroxy-1-(1-methylethyl)-3-[3-(methylsulfonyl)phenyl]urea]
% Inhibition 1 hour ([3]; 1 hour post dose): 97%
% Inhibition 2 hour ([3]; 2 hour post dose): 52%
% Inhibition 4 hour [3]: -79% and 49%
% Inhibition 6 hour [3]: -95% and 76%
inhibition at 5 mg/kg [3, 4]: 100%

COc1cc(NC(=O)N(O)C(C)C)cc(OC)c1OC [Compound 66, 1-Hydroxy-1-(1-methylethyl)-3-(3,4,5-trimethoxyphenyl)urea]
%I ([1]; 50 mg/Kg): 61%

CCC(CC)N(O)C(=O)Nc1ccc(Br)cc1 [Compound 41, 3-(4-Bromophenyl)-1-(1-ethylpropyl)-1-hydroxyurea]
%I ([1]; 50 mg/Kg): 14%

COc1ccccc1NC(=O)N(O)C(C)C [Compound 29, 1-hydroxy-3-(2-methoxyphenyl)-1-(1-methylethyl)urea]
%I ([1]; 50 mg/Kg): 61%

CCC(CC)N(O)C(=O)Nc1ccc(OCCCc2ccccc2)cc1 [Compound 82, 1-Hydroxy-1-(1-ethylpropyl)-3-[4-(3-phenylpropyloxy)phenyl]urea]
IC50 [2]: < 1 µM

CN(O)C(=O)Nc1ccc(Oc2ccccc2)cc1 [Compound 14, 1-hydroxy-1-methyl-3-(4-phenoxyphenyl)urea]
IC50 [2]: < 1 µM

CN(O)C(=O)Nc1ccc([S+](C)[O-])cc1 (centres unmarked) [Compound 64, 1-Hydroxy-1-methyl-3-[4-(methylsulfinyl)phenyl]urea]
%I ([1]; 50 mg/Kg): 88%

CCC(CC)N(O)C(=O)Nc1ccc(-c2ccccc2)cc1 [Compound 83, 1-Hydroxy-1-(1-ethylpropyl)-3-(biphenyl-4-yl)urea]
IC50 [2]: < 1 µM

CCCCc1ccc(NC(=O)N(O)C(C)C)cc1 [Compound 27, 3-(4-butylphenyl)-1-hydroxy-1-(1-methylethyl)urea]
%I ([1]; 10 mg/Kg): 23%
%I ([1]; 25 mg/Kg): 5%
%I ([1]; 50 mg/Kg): 53% and 75%

CC(C)(C)CCN(O)C(=O)Nc1ccccc1 [Compound 48, 1-(3,3-dimethylbutyl)-1-hydroxy-3-phenylurea]
%I ([1]; 50 mg/Kg): 2%

CCCCc1ccc(NC(=O)N(C)O)cc1 [Compound 12, 3-(4-butylphenyl)-1-hydroxy-1-methylurea]
%I ([1]; 50 mg/Kg): 42%

O=C(Nc1ccccc1)N(O)C1CCCC1 [Compound 46, 1-cyclopentyl-1-hydroxy-3-phenylurea]
% Inhibition 1 hour ([3]; 1 hour post dose): 77%
% Inhibition 2 hour ([3]; 2 hour post dose): 58%
% Inhibition 4 hour [3]: 11% and 2%
% Inhibition 6 hour [3]: -23% and 46%
inhibition at 5 mg/kg [3, 4]: 80%
inhibition at 5 mg/kg [3, 5]: 64%
%I ([1]; 50 mg/Kg): 17%

CCCCCN(O)C(=O)Nc1ccc(CCCC)cc1 [Compound 57, 3-(4-Butylphenyl)-1-hydroxy-1-pentylurea]
%I ([1]; 50 mg/Kg): 35%

CN(O)C(=O)Nc1ccc(S(C)(=O)=O)cc1 [Compound 65, 1-Hydroxy-1-methyl-3-[4-(methylsulfonyl)phenyl]urea]
%I ([1]; 50 mg/Kg): 93%

CCC(CC)N(O)C(=O)Nc1ccccc1 [Compound 42, 1-(1-Ethylpropyl)-1-hydroxy-3-phenylurea]
% Inhibition 1 hour ([3]; 1 hour post dose): 98% and 100%
% Inhibition 2 hour ([3]; 2 hour post dose): 100%
% Inhibition 4 hour [3]: 97% and 100% and -91%
% Inhibition 6 hour [3]: 78% and 85% and 91% and -150%
inhibition at 5 mg/kg [3, 4]: 99%
inhibition at 5 mg/kg [3, 5]: 99%
%I ([1]; 50 mg/Kg): 4%

CCCCC(CC)CN(O)C(=O)Nc1ccccc1 (centres unmarked) [Compound 47, 1-(2-ethylhexyl)-1-hydroxy-3-phenylurea]
%I ([1]; 50 mg/Kg): 16%
